# Laboratory results as given in ChEMBL document CHEMBL4229455, “Synthesis and anticancer activity of novel bisindolylhydroxymaleimide derivatives with potent GSK-3 kinase inhibition” (Bioorg Med Chem, 2018).
# Columns and labels:
# Format in all cases: functional
# [1] = tested on: HL-60(TB); test: Cytotoxicity against human HL-60(TB) cells assessed as cell growth at 0.01 uM after 48 hrs by SRB assay relative to control; settings: HL-60, 48 h, read-out: Activity
# [2] = tested on: COLO 205; test: Cytotoxicity against human COLO205 cells assessed as cell growth at 0.01 uM after 48 hrs by SRB assay relative to control; settings: COLO 205, 48 h, read-out: Activity
# [3] = tested on: HCT-15; test: Cytotoxicity against human HCT15 cells assessed as cell growth at 0.01 uM after 48 hrs by SRB assay relative to control; settings: HCT-15, 48 h, read-out: Activity
# [4] = tested on: KM12; test: Cytotoxicity against human KM12 cells assessed as cell growth at 0.01 uM after 48 hrs by SRB assay relative to control; settings: KM12, 48 h, read-out: Activity
# [5] = tested on: SNB-19; test: Cytotoxicity against human SNB19 cells assessed as cell growth at 0.01 uM after 48 hrs by SRB assay relative to control; settings: SNB-19, 48 h, read-out: Activity
# [6] = tested on: SK-MEL-5; test: Cytotoxicity against human SK-MEL-5 cells assessed as cell growth at 0.01 uM after 48 hrs by SRB assay relative to control; settings: SK-MEL-5, 48 h, read-out: Activity
# [7] = tested on: OVCAR-8; test: Cytotoxicity against human OVCAR8 cells assessed as cell growth at 0.01 uM after 48 hrs by SRB assay relative to control; settings: OVCAR-8, 48 h, read-out: Activity
# [8] = tested on: SK-OV-3; test: Cytotoxicity against human SKOV3 cells assessed as cell growth at 0.01 uM after 48 hrs by SRB assay relative to control; settings: SK-OV-3, 48 h, read-out: Activity
# [9] = tested on: A498; test: Cytotoxicity against human A498 cells assessed as cell growth at 0.01 uM after 48 hrs by SRB assay relative to control; settings: A498, 48 h, read-out: Activity
# [10] = tested on: BT-549; test: Cytotoxicity against human BT549 cells assessed as cell growth at 0.01 uM after 48 hrs by SRB assay relative to control; settings: BT-549, 48 h, read-out: Activity
# [11] = tested on: OVCAR-3; test: Cytotoxicity against human OVCAR3 cells assessed as cell growth at 0.1 uM after 48 hrs by SRB assay relative to control; settings: OVCAR-3, 48 h, read-out: Activity
# [12] = tested on: 786-0; test: Cytotoxicity against human 786-O cells assessed as cell growth at 0.1 uM after 48 hrs by SRB assay relative to control; settings: 786-0, 48 h, read-out: Activity
# [13] = tested on: ACHN; test: Cytotoxicity against human ACHN cells assessed as cell growth at 0.1 uM after 48 hrs by SRB assay relative to control; settings: read-out: Activity
# [14] = tested on: PC-3; test: Cytotoxicity against human PC3 cells assessed as cell growth at 0.1 uM after 48 hrs by SRB assay relative to control; settings: PC-3, 48 h, read-out: Activity
# [15] = tested on: T47D; test: Cytotoxicity against human T47D cells assessed as cell growth at 0.1 uM after 48 hrs by SRB assay relative to control; settings: read-out: Activity
# [16] = tested on: MOLT-4; test: Cytotoxicity against human MOLT4 cells assessed as cell growth at 1 uM after 48 hrs by SRB assay relative to control; settings: MOLT-4, 48 h, read-out: Activity
# [17] = tested on: HOP-62; test: Cytotoxicity against human HOP62 cells assessed as cell growth at 1 uM after 48 hrs by SRB assay relative to control; settings: HOP-62, 48 h, read-out: Activity
# [18] = tested on: NCI-H460; test: Cytotoxicity against human NCI-H460 cells assessed as cell growth at 1 uM after 48 hrs by SRB assay relative to control; settings: NCI-H460, 48 h, read-out: Activity
# [19] = tested on: HT-29; test: Cytotoxicity against human HT-29 cells assessed as cell growth at 1 uM after 48 hrs by SRB assay relative to control; settings: HT-29, 48 h, read-out: Activity
# [20] = tested on: SF-295; test: Cytotoxicity against human SF295 cells assessed as cell growth at 1 uM after 48 hrs by SRB assay relative to control; settings: SF-295, 48 h, read-out: Activity
# [21] = tested on: MDA-MB-435; test: Cytotoxicity against human MDA-MB-435 cells assessed as cell growth at 1 uM after 48 hrs by SRB assay relative to control; settings: MDA-MB-435, 48 h, read-out: Activity
# [22] = tested on: SN12C; test: Cytotoxicity against human SN12C cells assessed as cell growth at 1 uM after 48 hrs by SRB assay relative to control; settings: read-out: Activity
# [23] = tested on: A549; test: Cytotoxicity against human A549 cells assessed as cell growth at 100 uM after 48 hrs by SRB assay relative to control; settings: A549, 48 h, read-out: Activity
# [24] = tested on: HCT-116; test: Cytotoxicity against human HCT116 cells assessed as cell growth at 100 uM after 48 hrs by SRB assay relative to control; settings: HCT-116, 48 h, read-out: Activity
# [25] = tested on: HCT-15; test: Cytotoxicity against human HCT15 cells assessed as cell growth at 100 uM after 48 hrs by SRB assay relative to control; settings: HCT-15, 48 h, read-out: Activity
# [26] = tested on: KM12; test: Cytotoxicity against human KM12 cells assessed as cell growth at 100 uM after 48 hrs by SRB assay relative to control; settings: KM12, 48 h, read-out: Activity
# [27] = tested on: SF-295; test: Cytotoxicity against human SF295 cells assessed as cell growth at 100 uM after 48 hrs by SRB assay relative to control; settings: SF-295, 48 h, read-out: Activity
# [28] = tested on: A498; test: Cytotoxicity against human A498 cells assessed as cell growth at 100 uM after 48 hrs by SRB assay relative to control; settings: A498, 48 h, read-out: Activity
# [29] = tested on: UO-31; test: Cytotoxicity against human UO31 cells assessed as cell growth at 100 uM after 48 hrs by SRB assay relative to control; settings: UO-31, 48 h, read-out: Activity
# [30] = tested on: HCC 2998; test: Cytotoxicity against human HCC2998 cells after 48 hrs by SRB assay; settings: HCC 2998, 48 h
# [31] = tested on: HCT-116; test: Cytotoxicity against human HCT116 cells after 48 hrs by SRB assay; settings: HCT-116, 48 h
# [32] = tested on: SF-295; test: Cytotoxicity against human SF295 cells after 48 hrs by SRB assay; settings: SF-295, 48 h; for CC50: read-out: LC50 (the source's name)
# [33] = tested on: SNB-19; test: Cytotoxicity against human SNB19 cells after 48 hrs by SRB assay; settings: SNB-19, 48 h
# [34] = tested on: OVCAR-3; test: Cytotoxicity against human OVCAR3 cells after 48 hrs by SRB assay; settings: OVCAR-3, 48 h
# [35] = tested on: SK-OV-3; test: Cytotoxicity against human SKOV3 cells after 48 hrs by SRB assay; settings: SK-OV-3, 48 h
# [36] = tested on: SN12C; test: Cytotoxicity against human SN12C cells after 48 hrs by SRB assay; settings: for CC50: read-out: LC50 (the source's name)
compound,measurement,setting,value
N#CCCCCCn1cc(C2=C(c3cn(CCCCCC#N)c4ccccc34)C(=O)N(O)C2=O)c2ccccc21,growth at 0.01 µM,[1],98%
same,growth at 0.01 µM,[2],99%
same,growth at 0.01 µM,[3],93%
same,growth at 0.01 µM,[4],97%
same,growth at 0.01 µM,[5],97%
same,growth at 0.01 µM,[6],99%
same,growth at 0.01 µM,[7],99%
same,growth at 0.01 µM,[8],98%
same,growth at 0.01 µM,[9],84%
same,growth at 0.01 µM,[10],101%
same,growth at 0.1 µM,[11],101%
same,growth at 0.1 µM,[12],101%
same,growth at 0.1 µM,[13],91%
same,growth at 0.1 µM,[14],88%
same,growth at 0.1 µM,[15],89%
same,growth at 1 µM,[16],85%
same,growth at 1 µM,[17],83%
same,growth at 1 µM,[18],101%
same,growth at 1 µM,[19],106%
same,growth at 1 µM,[20],96%
same,growth at 1 µM,[21],96%
same,growth at 1 µM,[22],93%
same,growth at 100 µM,[23],5%
same,growth at 100 µM,[24],-15%
same,growth at 100 µM,[25],1%
same,growth at 100 µM,[26],-23%
same,growth at 100 µM,[27],-37%
same,growth at 100 µM,[28],-1%
same,growth at 100 µM,[29],-1%
same,GI50,[30],14.2 µM
same,LC50,[30],> 100 µM
same,TGI,[30],> 100 µM
same,GI50,[31],4.17 µM
same,LC50,[31],> 100 µM
same,TGI,[31],37.8 µM
same,GI50,[32],5.93 µM
same,TGI,[32],31.4 µM
same,CC50,[32],> 100 µM
same,GI50,[33],4.36 µM
same,LC50,[33],> 100 µM
same,TGI,[33],> 100 µM
same,GI50,[34],3.81 µM
same,LC50,[34],> 100 µM
same,TGI,[34],19 µM
same,GI50,[35],7.78 µM
same,LC50,[35],> 100 µM
same,TGI,[35],> 100 µM
same,GI50,[36],8.47 µM
same,TGI,[36],> 100 µM
same,CC50,[36],> 100 µM
Cn1cc(C2=C(c3cn(C)c4ncccc34)C(=O)NC2=O)c2ccccc21,growth at 0.01 µM,[1],106%
same,growth at 0.01 µM,[2],105%
same,growth at 0.01 µM,[3],100%
same,growth at 0.01 µM,[4],102%
same,growth at 0.01 µM,[5],92%
same,growth at 0.01 µM,[6],102%
same,growth at 0.01 µM,[7],105%
same,growth at 0.01 µM,[8],104%
same,growth at 0.01 µM,[9],76%
same,growth at 0.01 µM,[10],110%
same,growth at 0.1 µM,[11],111%
same,growth at 0.1 µM,[12],101%
same,growth at 0.1 µM,[13],99%
same,growth at 0.1 µM,[14],94%
same,growth at 0.1 µM,[15],100%
same,growth at 1 µM,[16],101%
same,growth at 1 µM,[17],87%
same,growth at 1 µM,[18],89%
same,growth at 1 µM,[19],93%
same,growth at 1 µM,[20],85%
same,growth at 1 µM,[21],40%
same,growth at 1 µM,[22],76%
same,growth at 100 µM,[23],-19%
same,growth at 100 µM,[24],-17%
same,growth at 100 µM,[25],-6%
same,growth at 100 µM,[26],-86%
same,growth at 100 µM,[27],-20%
same,growth at 100 µM,[28],-49%
same,growth at 100 µM,[29],-17%
same,GI50,[30],4.35 µM
same,TGI,[30],28.2 µM
same,GI50,[31],3.24 µM
same,TGI,[31],30.2 µM
same,GI50,[32],2.61 µM
same,TGI,[32],10.3 µM
same,CC50,[32],> 100 µM
same,GI50,[33],6.31 µM
same,TGI,[33],61.1 µM
same,GI50,[34],4.49 µM
same,TGI,[34],36.8 µM
same,GI50,[35],2.09 µM
same,TGI,[35],8 µM
same,GI50,[36],2.31 µM
same,TGI,[36],16.2 µM
same,CC50,[36],> 100 µM
